Assay results taken from patent US8241872B2, “Microorganism producing cyclic compound” (Astellas Pharma Inc., priority 2008, dated 2012).
Non-standard residues stand in square brackets, D forms with d. Residues, ends and D or L forms follow the SMILES beside them. ξ: configuration not given here. ξOrn(N(OH)Ac) = CC(=O)N(O)CCCC(N)C(=O)O

Experiments:
Assay in all cases: Antifungal activity, broth microdilution method
Assay type in all cases: cell-based
[1] = system: Pseudallescheria boydii FP1987
Experimental: (§1) Antifungal activities for test fungi shown in Table 15 was determined by a broth microdilution method (Hikaru Kume and Toshikazu Yamazaki, Clinical Microbiology, Vol. 21, No. 5, pp. 573-580, 1994).

[2] = system: Trichophyton mentagrophytes FP2103
Experimental: as §1

[3] = system: Alternaria alternata AHU9258
Experimental: as §1

[4] = system: Fusarium solani FP1930
Experimental: as §1

[5] = system: Candida parapsilosis FP1980
Experimental: as §1

[6] = system: Candida glabrata FP1944
Experimental: as §1

[7] = system: Trichosporon asahi FP2044
Experimental: as §1

[8] = system: Aspergillus niger ATCC6275
Experimental: as §1

[9] = system: Trichophyton rubrum FP596
Experimental: as §1

[10] = system: Rhizopus oryzae FP1988
Experimental: as §1

[11] = system: Aspergillus fumigatus FP1305
Experimental: as §1

[12] = system: Candida guilliermondii FP2086
Experimental: as §1

[13] = system: Aspergillus terreus SR0174
Experimental: as §1

[14] = system: Cryptococcus neoformans FP1739
Experimental: as §1

[15] = system: Aspergillus flavus ATCC9643
Experimental: as §1

[16] = system: Candida krusei FP1979
Experimental: as §1

Compound: CC(=O)N(O)CCCC1NC(=O)C(CCCN(O)C(C)=O)NC(=O)C(Cc2ccccc2)NC(=O)C(CC(C)C)NC(=O)C(CC(N)=O)NC(=O)C(CCCN(O)C(C)=O)NC1=O (stereo not shown) [compound B] (cyclo([ξOrn(N(OH)Ac)][ξOrn(N(OH)Ac)][ξOrn(N(OH)Ac)]NLF); configuration not given here)
- MEC (minimum effective concentration) [1]: 0.2 µg/mL
- MEC (minimum effective concentration) [2]: 0.78 µg/mL
- MEC (minimum effective concentration) [3]: 0.1 µg/mL
- MEC (minimum effective concentration) [4]: 0.2 µg/mL
- MEC (minimum effective concentration) [5]: 0.39 µg/mL
- MEC (minimum effective concentration) [6]: 0.31 µg/mL
- MEC (minimum effective concentration) [7]: 0.2 µg/mL
- MEC (minimum effective concentration) [8]: 0.78 µg/mL
- MEC (minimum effective concentration) [9]: 1.25 µg/mL
- MEC (minimum effective concentration) [10]: 25 µg/mL
- MEC (minimum effective concentration) [11]: 0.31 µg/mL
- MEC (minimum effective concentration) [12]: 0.31 µg/mL
- MEC (minimum effective concentration) [13]: 0.31 µg/mL
- MEC (minimum effective concentration) [14]: 0.2 µg/mL
- MEC (minimum effective concentration) [15]: 0.2 µg/mL
- MEC (minimum effective concentration) [16]: 0.31 µg/mL
